Source: patent publication US20220340629A1, “Myosin Derived Peptides and Related Compounds with Anticoagulant Activities” (THE SCRIPPS RESEARCH INSTITUTE, priority 0001, published 2022)
Read-outs that look alike come from different tables or passages of the source. Values belong to the compound of their own block, whether it stands above or below them. Non-standard residues stand in square brackets, D forms with d. Residues, ends and D or L forms follow the SMILES beside them. NMeH = CN[C@@H](Cc1c[nH]cn1)C(=O)O; NMeI = CC[C@H](C)[C@H](NC)C(=O)O; NMeA = CN[C@@H](C)C(=O)O; Nle = CCCC[C@H](N)C(=O)O

Key:
[1] = system: skeletal muscle myosin-supported prothrombin activation by factors Xa and Va; test: Assay 1A: prothrombin activation by factor Xa/factor Va/myosin in purified system; format: biochemical, human factors Xa and Va; rabbit skeletal muscle myosin; details: for inhibition of myosin's procoagulant activity: data not shown; for inhibition of myosin-supported prothrombin activation at 100 μM: peptide 100 μM, FIG. 1A
[2] = target: skeletal muscle myosin-supported prothrombin activation by factors Xa and Va (Homo sapiens, UniProt P00742); test: as above; format: biochemical, human factors Xa and Va; rabbit skeletal muscle myosin; details: purified system
[3] = skeletal muscle myosin, factor Va 5 nM, factor Xa 0.2 nM, prothrombin 0.75 μM, 10 min, read-out: 1A (+myosin)
[4] = prothrombin activation with myosin, read-out: 1A (+ myosin) IC50

Chain of skeletal muscle myosin-supported prothrombin activation by factors Xa and Va (Homo sapiens, UniProt P00742) (P00742 41-179): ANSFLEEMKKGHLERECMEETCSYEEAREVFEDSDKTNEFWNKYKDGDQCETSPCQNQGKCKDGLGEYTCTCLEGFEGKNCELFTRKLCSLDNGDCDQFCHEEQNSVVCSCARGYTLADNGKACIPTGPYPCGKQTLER
Chain of skeletal muscle myosin-supported prothrombin activation by factors Xa and Va (Homo sapiens, UniProt P00742) (P00742 235-488): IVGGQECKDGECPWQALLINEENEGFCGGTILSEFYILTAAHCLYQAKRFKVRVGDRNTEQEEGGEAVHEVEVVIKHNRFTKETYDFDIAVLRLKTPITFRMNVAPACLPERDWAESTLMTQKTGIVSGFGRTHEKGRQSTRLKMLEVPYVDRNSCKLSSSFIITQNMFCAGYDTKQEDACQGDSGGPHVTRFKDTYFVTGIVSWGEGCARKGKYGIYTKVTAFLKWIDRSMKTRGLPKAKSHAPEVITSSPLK
Chain of skeletal muscle myosin-supported prothrombin activation by factors Xa and Va (Homo sapiens, UniProt P00742) (P12259 29-737 partner): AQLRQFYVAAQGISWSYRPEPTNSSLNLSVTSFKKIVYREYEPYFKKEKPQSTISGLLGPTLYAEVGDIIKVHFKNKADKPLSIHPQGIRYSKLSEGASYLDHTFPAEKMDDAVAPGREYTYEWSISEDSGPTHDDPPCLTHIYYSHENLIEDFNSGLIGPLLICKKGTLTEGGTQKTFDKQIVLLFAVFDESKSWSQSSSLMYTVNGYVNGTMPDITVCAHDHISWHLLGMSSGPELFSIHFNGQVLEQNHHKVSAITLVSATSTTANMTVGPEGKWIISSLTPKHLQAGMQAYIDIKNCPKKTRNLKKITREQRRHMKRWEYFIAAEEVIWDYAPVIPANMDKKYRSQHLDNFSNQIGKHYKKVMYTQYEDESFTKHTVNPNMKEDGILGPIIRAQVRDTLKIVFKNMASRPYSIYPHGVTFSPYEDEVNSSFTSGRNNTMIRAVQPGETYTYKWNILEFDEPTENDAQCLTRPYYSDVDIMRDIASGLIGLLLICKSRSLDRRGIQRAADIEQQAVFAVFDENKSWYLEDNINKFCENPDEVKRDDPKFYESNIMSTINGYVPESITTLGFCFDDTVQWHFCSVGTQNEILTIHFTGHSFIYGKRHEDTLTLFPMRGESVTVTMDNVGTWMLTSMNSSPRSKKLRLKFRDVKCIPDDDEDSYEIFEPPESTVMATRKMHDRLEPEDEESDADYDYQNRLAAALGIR
Chain of skeletal muscle myosin-supported prothrombin activation by factors Xa and Va (Homo sapiens, UniProt P00742) (P12259 1574-2224 partner): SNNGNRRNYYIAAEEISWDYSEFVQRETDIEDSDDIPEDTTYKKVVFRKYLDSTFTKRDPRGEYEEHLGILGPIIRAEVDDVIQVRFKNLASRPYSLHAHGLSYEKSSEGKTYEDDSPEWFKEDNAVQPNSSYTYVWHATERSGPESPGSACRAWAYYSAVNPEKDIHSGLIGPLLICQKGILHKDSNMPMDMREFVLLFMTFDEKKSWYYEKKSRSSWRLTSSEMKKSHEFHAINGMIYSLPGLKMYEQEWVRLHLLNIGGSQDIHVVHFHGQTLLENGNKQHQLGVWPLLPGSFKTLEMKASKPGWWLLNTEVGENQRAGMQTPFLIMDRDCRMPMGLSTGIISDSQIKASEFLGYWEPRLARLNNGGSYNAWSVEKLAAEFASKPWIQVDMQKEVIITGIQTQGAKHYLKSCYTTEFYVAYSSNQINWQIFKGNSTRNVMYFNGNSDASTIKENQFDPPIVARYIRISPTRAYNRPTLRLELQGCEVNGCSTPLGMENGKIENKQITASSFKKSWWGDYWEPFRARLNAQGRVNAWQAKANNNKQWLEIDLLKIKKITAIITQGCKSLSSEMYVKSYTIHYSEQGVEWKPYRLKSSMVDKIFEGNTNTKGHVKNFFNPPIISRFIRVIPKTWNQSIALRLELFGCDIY

Compound: Cc1ccc2c(c1)C(=O)C1(O)CCN(c3ccccc3)C1=N2 (single isomer, unassigned; (-)) [(-) blebbistatin, reference compound]
inhibition of myosin's procoagulant activity ([1]; up to 65 μM): did not inhibit

IC50 [2, 3]: 0.9 µM
Compound: CC[C@H](C)[C@H](NC(=O)[C@H](C)N)C(=O)N[C@@H](Cc1ccccc1)C(=O)N[C@@H](CS)C(=O)N[C@H](C(=O)N[C@@H](CCC(N)=O)C(=O)N[C@@H](Cc1ccc(O)cc1)C(=O)N[C@@H](CC(N)=O)C(=O)N[C@H](C(=O)N[C@@H](CCCNC(=N)N)C(=O)N[C@@H](CO)C(=O)N[C@@H](Cc1ccccc1)C(=O)N[C@@H](CCSC)C(=O)N[C@@H](CC(N)=O)C(=O)N[C@H](C(=O)N[C@@H](CCCCN)C(=O)N[C@@H](Cc1c[nH]cn1)C(=O)N[C@@H](Cc1c[nH]c2ccccc12)C(=O)N[C@@H](C)C(=O)N[C@@H](Cc1c[nH]c2ccccc12)C(=O)N[C@@H](CCSC)C(=O)N[C@@H](CCCCN)C(N)=O)C(C)C)[C@@H](C)CC)[C@@H](C)CC [HC134] (H-AIFCIQYNIRSFMNVKHWAWMK-NH2; N-terminus assumed)

IC50 [2, 3]: 2.7 µM
Compound: CC[C@H](C)[C@H](NC(=O)[C@H](C)N)C(=O)N[C@@H](Cc1ccccc1)C(=O)N[C@@H](CS)C(=O)N[C@H](C(=O)N[C@@H](CCC(N)=O)C(=O)N[C@@H](Cc1ccc(O)cc1)C(=O)N[C@@H](CC(N)=O)C(=O)N[C@H](C(=O)N[C@@H](CCCNC(=N)N)C(=O)N[C@@H](CO)C(=O)N[C@@H](Cc1ccccc1)C(=O)N[C@@H](CCSC)C(=O)N[C@@H](CC(N)=O)C(=O)N[C@H](C(=O)N[C@@H](CCCCN)C(=O)N[C@@H](Cc1c[nH]cn1)C(=O)N[C@@H](Cc1c[nH]c2ccccc12)C(=O)N1CCC[C@H]1C(=O)N[C@@H](C)C(=O)N[C@@H](CCSC)C(=O)N[C@@H](CCCCN)C(N)=O)C(C)C)[C@@H](C)CC)[C@@H](C)CC [HC135] (H-AIFCIQYNIRSFMNVKHWPAMK-NH2; N-terminus assumed)

IC50 [2, 3]: 1.6 µM
Compound: CC[C@H](C)[C@H](NC(=O)[C@H](C)N)C(=O)N[C@@H](Cc1ccccc1)C(=O)N[C@@H](CS)C(=O)N[C@H](C(=O)N[C@@H](CCC(N)=O)C(=O)N[C@@H](Cc1ccc(O)cc1)C(=O)N[C@@H](CC(N)=O)C(=O)N[C@H](C(=O)N[C@@H](CCCNC(=N)N)C(=O)N[C@@H](CO)C(=O)N[C@@H](Cc1ccccc1)C(=O)N[C@@H](CCSC)C(=O)N[C@@H](CC(N)=O)C(=O)N[C@H](C(=O)N[C@@H](CCCCN)C(=O)N[C@@H](Cc1c[nH]cn1)C(=O)N[C@@H](Cc1c[nH]c2ccccc12)C(=O)N1CCC[C@H]1C(=O)N[C@@H](Cc1c[nH]c2ccccc12)C(=O)N[C@@H](C)C(=O)N[C@@H](CCCCN)C(N)=O)C(C)C)[C@@H](C)CC)[C@@H](C)CC [HC136] (H-AIFCIQYNIRSFMNVKHWPWAK-NH2; N-terminus assumed)

IC50 [2, 3]: 5.5 µM
Compound: CC[C@H](C)[C@H](NC(=O)[C@H](C)N)C(=O)N[C@@H](Cc1ccccc1)C(=O)N[C@@H](CS)C(=O)N[C@H](C(=O)N[C@@H](CCC(N)=O)C(=O)N[C@@H](Cc1ccc(O)cc1)C(=O)N[C@@H](CC(N)=O)C(=O)N[C@H](C(=O)N[C@@H](CCCNC(=N)N)C(=O)N[C@@H](CO)C(=O)N[C@@H](Cc1ccccc1)C(=O)N[C@@H](CCSC)C(=O)N[C@@H](CC(N)=O)C(=O)N[C@H](C(=O)N[C@@H](CCCCN)C(=O)N[C@@H](Cc1c[nH]cn1)C(=O)N[C@@H](Cc1c[nH]c2ccccc12)C(=O)N1CCC[C@H]1C(=O)N[C@@H](Cc1c[nH]c2ccccc12)C(=O)N[C@@H](CCSC)C(=O)N[C@@H](C)C(N)=O)C(C)C)[C@@H](C)CC)[C@@H](C)CC [HC137] (H-AIFCIQYNIRSFMNVKHWPWMA-NH2; N-terminus assumed)

IC50 [2, 3]: 3.6 µM
Compound: CCCC[C@H](NC(=O)[C@H](Cc1c[nH]c2ccccc12)NC(=O)[C@@H]1CCCN1C(=O)[C@H](Cc1c[nH]c2ccccc12)NC(=O)[C@H](Cc1c[nH]cn1)NC(=O)[C@H](CCCCN)NC(=O)[C@@H](NC(=O)[C@H](CC(N)=O)NC(=O)[C@H](CCCC)NC(=O)[C@H](Cc1ccccc1)NC(=O)[C@H](CO)NC(=O)[C@H](CCCNC(=N)N)NC(=O)[C@@H](NC(=O)[C@H](CC(N)=O)NC(=O)[C@H](Cc1ccc(O)cc1)NC(=O)[C@H](CCC(N)=O)NC(=O)[C@@H](NC(=O)[C@H](CS)NC(=O)[C@H](Cc1ccccc1)NC(=O)[C@@H](NC(=O)[C@H](C)NC)[C@@H](C)CC)[C@@H](C)CC)[C@@H](C)CC)C(C)C)C(=O)N[C@@H](CCCCN)C(N)=O [HC190] (H-[NMeA]IFCIQYNIRSF[Nle]NVKHWPW[Nle]K-NH2; N-terminus assumed)

IC50 [2, 4]: 1.6 µM
Compound: CCCC[C@H](NC(=O)[C@H](Cc1c[nH]c2ccccc12)NC(=O)[C@@H]1CCCN1C(=O)[C@H](Cc1c[nH]c2ccccc12)NC(=O)[C@H](Cc1c[nH]cn1)NC(=O)[C@H](CCCCN)NC(=O)[C@@H](NC(=O)[C@H](CC(N)=O)NC(=O)[C@H](CCCC)NC(=O)[C@H](Cc1ccccc1)NC(=O)[C@H](CO)NC(=O)[C@H](CCCNC(=N)N)NC(=O)[C@@H](NC(=O)[C@H](CC(N)=O)NC(=O)[C@H](Cc1ccc(O)cc1)NC(=O)[C@H](CCC(N)=O)NC(=O)[C@@H](NC(=O)[C@H](CS)NC(=O)[C@H](Cc1ccccc1)NC(=O)[C@H](C)N(C)C(=O)[C@H](C)N)[C@@H](C)CC)[C@@H](C)CC)C(C)C)C(=O)N[C@@H](CCCCN)C(N)=O [HC191] (H-A[NMeA]FCIQYNIRSF[Nle]NVKHWPW[Nle]K-NH2; N-terminus assumed)

IC50 [2, 4]: 2.2 µM
Compound: CCCC[C@H](NC(=O)[C@H](Cc1c[nH]c2ccccc12)NC(=O)[C@@H]1CCCN1C(=O)[C@H](Cc1c[nH]c2ccccc12)NC(=O)[C@H](Cc1c[nH]cn1)NC(=O)[C@H](CCCCN)NC(=O)[C@@H](NC(=O)[C@H](CC(N)=O)NC(=O)[C@H](CCCC)NC(=O)[C@H](Cc1ccccc1)NC(=O)[C@H](CO)NC(=O)[C@H](CCCNC(=N)N)NC(=O)[C@@H](NC(=O)[C@H](CC(N)=O)NC(=O)[C@H](Cc1ccc(O)cc1)NC(=O)[C@H](CCC(N)=O)NC(=O)[C@@H](NC(=O)[C@H](CS)NC(=O)[C@H](Cc1ccccc1)NC(=O)[C@H]([C@@H](C)CC)N(C)C(=O)[C@H](C)N)[C@@H](C)CC)[C@@H](C)CC)C(C)C)C(=O)N[C@@H](CCCCN)C(N)=O [HC192] (H-A[NMeI]FCIQYNIRSF[Nle]NVKHWPW[Nle]K-NH2; N-terminus assumed)

IC50 [2, 4]: 1.4 µM
Compound: CCCC[C@H](NC(=O)[C@H](Cc1c[nH]c2ccccc12)NC(=O)[C@@H]1CCCN1C(=O)[C@H](Cc1c[nH]c2ccccc12)NC(=O)[C@H](Cc1c[nH]cn1)N(C)C(=O)[C@H](CCCCN)NC(=O)[C@@H](NC(=O)[C@H](CC(N)=O)NC(=O)[C@H](CCCC)NC(=O)[C@H](Cc1ccccc1)NC(=O)[C@H](CO)NC(=O)[C@H](CCCNC(=N)N)NC(=O)[C@@H](NC(=O)[C@H](CC(N)=O)NC(=O)[C@H](Cc1ccc(O)cc1)NC(=O)[C@H](CCC(N)=O)NC(=O)[C@@H](NC(=O)[C@H](CS)NC(=O)[C@H](Cc1ccccc1)NC(=O)[C@@H](NC(=O)[C@H](C)N)[C@@H](C)CC)[C@@H](C)CC)[C@@H](C)CC)C(C)C)C(=O)N[C@@H](CCCCN)C(N)=O [HC200] (H-AIFCIQYNIRSF[Nle]NVK[NMeH]WPW[Nle]K-NH2; N-terminus assumed)

Compound: Cc1ccc(S(=O)(=O)NCc2ccccc2)cc1 [N-benzyl-p-toluene sulfonamide, reference compound]
inhibition of myosin's procoagulant activity ([1]; up to 0.7 mM): did not inhibit

Compound: CN1CCN(CCCN2c3ccccc3Sc3ccc(C(F)(F)F)cc32)CC1 [TFP, trifluoperazine, reference compound]
inhibition of myosin-supported prothrombin activation ([1]; dose-dependent studies, FIG. 4, TFP 0-100 μM, ELC peptides 0-300 μM): inhibits

Compound: COC(=O)N1CCN(Cc2cccc(NC(=O)Nc3ccc(C)nc3)c2F)CC1 [omecamtiv mecarbil, reference compound]
inhibition of myosin's procoagulant activity ([1]; up to 50 μM): did not inhibit

Compound: Ac-GAELRHVLATLGEKMKEEEVEALMA-NH (Ac-GAELRHVLATLGEKMKEEEVEALMA-NH2) [ELC149-173]
inhibition of myosin-supported prothrombin activation at 100 μM [1]: did not

Compound: Ac-SNEELNAKKIEFEQFLPMMQAISN-NH2 [ELC99-122]
inhibition of myosin-supported prothrombin activation at 100 μM [1]: did not

IC50 [2, 4]: 25 µM
Compound: QEEIKNMWAAFPPDVGGNVDYKNICYVITH (Ac-QEEIKNMWAAFPPDVGGNVDYKNICYVITH-NH2) [RLC133-162]

IC50 [2, 4]: 75 µM
Compound: RVFDKEGNGTVMGAELRHVL (Ac-RVFDKEGNGTVMGAELRHVL-NH2) [ELC138-157]

IC50 [2, 4]: ~70 µM
Compound: YEDFVEGLRVFDKEGN (Ac-YEDFVEGLRVFDKEGN-NH2) [ELC129-144]
